Test results taken from patent US7696218B2, “Substituted 1,3-dialkyl-2,4-dioxo-6-(arylamino)-1,2,3,4-tetrahydropyrimidine-5-hydroxamic acid inhibitors of MAPK/ERK kinase” (Takeda San Diego, Inc., priority 2006, dated 2010).

Target: T1, MEK2 (Homo sapiens, UniProt P36507, S222E/S226D)
T1 construct: 6-histidine tag (N); made in house; host or cells: Spodoptera frugiperda Sf9 (baculovirus) for MEK2; E. coli for ERK1
Test: MEK2 inhibition assay, fluorescence polarization with IMAP beads (ERK1 / FI-Erktide substrate)
Type: biochemical
Conditions: 4 nM MEK2, 25 nM ERK1, 400 μM ATP, 500 nM FI-Erktide, 1% DMSO, 22 min at room temperature; values given as ranges; read-out: IC50 of Exemplified Compounds Against MEK2
Source text: For MEK2, DNA encoding residues 1-400 (S222E/S226D) of the full-length sequence of the human enzyme may be amplified by PCR and cloned into pFastbac (Invitrogen), which incorporates a 6-histidine tag at the N-terminus. The two mutations, S222E and S226D, may be obtained by quick change PCR. SEQ ID NO: 3 corresponds to residues 1-400 with mutations S222E/S226D, and with the N-terminal 6-histidine tag and SEQ ID NO: 4 is the DNA sequence that was used to encode SEQ ID NO: 3.
Recombinant baculovirus incorporating the MEK1 and MEK2 constructs may be generated by transposition using the Bac-to-Bac system (Invitrogen). High-titer viral stocks may be generated by infection of Spodoptera frugiperda Sf9 cells; the expression of recombinant protein may be carried out by infection of Spodoptera frugiperda Sf9 (Invitrogen) in 5L Wave Bioreactors (Wave Biotech).
Recombinant protein may be isolated from cellular extracts by passage over ProBond resin (Invitrogen). Partially purified extracts of all MEK1 may then be further purified by high pressure liquid chromatography over a SEC2000 gel filtration resin. The purity of MEK1 and MEK2 proteins may be determined on denaturing SDS-PAGE gel. Purified MEK1 and MEK2 may then be concentrated to a final concentration of 3.4 mg/ml and 5.4 mg/ml, respectively. The proteins may be either stored at −78° C. in a buffer containing 50 mM TRIS-HCl pH 7.6, 250 mM NaCl, 0.1 mM EDTA and 0.125 mM TCEP or at −20° C. in the presence of glycerol (final concentration of glycerol at 50%).
The inhibitory properties of compounds relative to MEK1 or MEK2 may be determined using a black 384-well-plate format under the following reaction conditions: 50 mM HEPES pH 7.3, 10 mM NaCl, 10 mM MgCl2, 0.01% Brij35, 1 nM MEK1 or 4 nM MEK2, 25 nM ERK1, 400 μM ATP, 500 nM IPTTPITTYFFFK-5FAM-COOH (FI-Erktide), and 1% DMSO. Reaction product is determined quantitatively by fluorescent polarization using progressive IMAP beads from Molecular Devices.
The assay reaction may be initiated as follows: 2 μl of the mixture of 1.5 μM FI-Erktide and 75 nM ERK with 2 μl of inhibitor (2 fold serial dilutions for 11 data points for each inhibitor) containing 3% DMSO were added to each well of the plate, followed by the addition of 2 μl of the mixture of 3 nM MEK1 or 12 nM MEK2 and 1200 μM ATP to initiate the reaction (final enzyme concentration was 1 nM for MEK1 or 4 nM for MEK2). The reaction mixture may then be incubated at room temperature for 22 min, and quenched and developed by addition of 20 μl of 1:200 dilution of progressive IMAP beads (Molecular Devices) in 80% buffer A, 20% bufferB and 0.003% Tween 20. Fluorescence polarization of the resulting reaction mixtures may be measured after a 1 hour incubation at room temperature.
IC50 values may be calculated by non-linear curve fitting of the compound concentrations and fluorescence polarization signal to the standard IC50 equation.

T1 sequence (P36507 with tags, fused parts or gaps S222E/S226D): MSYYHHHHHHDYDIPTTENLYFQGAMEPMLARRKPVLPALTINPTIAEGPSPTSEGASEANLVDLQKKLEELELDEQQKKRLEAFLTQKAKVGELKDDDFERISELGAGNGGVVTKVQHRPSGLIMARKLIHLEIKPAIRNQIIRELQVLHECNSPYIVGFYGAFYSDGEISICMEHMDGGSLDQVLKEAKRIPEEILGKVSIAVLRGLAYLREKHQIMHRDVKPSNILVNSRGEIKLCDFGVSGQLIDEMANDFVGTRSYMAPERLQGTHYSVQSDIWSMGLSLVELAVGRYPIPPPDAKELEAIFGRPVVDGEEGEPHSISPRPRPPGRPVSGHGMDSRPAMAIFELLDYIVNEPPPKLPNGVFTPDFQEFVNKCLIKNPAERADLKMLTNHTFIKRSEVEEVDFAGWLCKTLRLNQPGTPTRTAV

| IC50 | SMILES |
| --- | --- |
| ≤ 500 nM | Cn1c(Nc2ccc(I)cc2Cl)c(C(=O)NOC[C@H](O)CO)c(=O)n(C)c1=O [Example 27, (R)-6-(2-chloro-4-iodophenylamino)-N-(2,3-dihydroxypropoxy)-1,3-dimethyl-2,4-dioxo-1,2,3,4-tetrahydropyrimidine-5-carboxamide] |
| ≤ 500 nM | Cn1c(Nc2ccc(I)cc2F)c(C(=O)NOCCO)c(=O)n(C)c1=O [Example 3, 6-(2-fluoro-4-iodophenylamino)-N-(2-hydroxyethoxy)-1,3-dimethyl-2,4-dioxo-1,2,3,4-tetrahydropyrimidine-5-carboxamide] |
| 501 to 2500 nM | Cn1c(Nc2ccc(I)cc2F)c(C(=O)NOCCCO)c(=O)n(C)c1=O [Example 29, 6-(2-Fluoro-4-iodophenylamino)-N-(3-hydroxypropoxy)-1,3-dimethyl-2,4-dioxo-1,2,3,4-tetrahydropyrimidine-5-carboxamide] |
| 501 to 2500 nM | Cn1c(Nc2ccc(I)cc2F)c(C(=O)NCCO)c(=O)n(C)c1=O [Example 55, 6-(2-Fluoro-4-iodophenylamino)-N-(2-hydroxyethyl)-1,3-dimethyl-2,4-dioxo-1,2,3,4-tetrahydropyrimidine-5-carboxamide] |
| 501 to 2500 nM | Cn1c(Nc2ccc(I)cc2F)c(C(=O)NOCC2CC2)c(=O)n(C)c1=O [Example 4, N-(cyclopropylmethoxy)-6-(2-fluoro-4-iodophenylamino)-1,3-dimethyl-2,4-dioxo-1,2,3,4-tetrahydropyrimidine-5-carboxamide] |
| > 25000 nM | CCn1c(Nc2ccc(I)cc2F)c(C(=O)NOCCO)c(=O)n(C)c1=O [Example 51, 1-Ethyl-6-(2-fluoro-4-iodophenylamino)-N-(2-hydroxyethoxy)-3-methyl-2,4-dioxo-1,2,3,4-tetrahydropyrimidine-5-carboxamide] |
| ≤ 500 nM | Cn1c(Nc2ccc(I)cc2Cl)c(C(=O)NOCCO)c(=O)n(C)c1=O [Example 25, 6-(2-chloro-4-iodophenylamino)-N-(2-hydroxyethoxy)-1,3-dimethyl-2,4-dioxo-1,2,3,4-tetrahydropyrimidine-5-carboxamide] |
| 501 to 2500 nM | CC(=O)c1c(Nc2ccc(I)cc2F)n(C)c(=O)n(C)c1=O [Example 10, 5-Acetyl-6-(2-fluoro-4-iodophenylamino)-1,3-dimethylpyrimidine-2,4(1H,3H)-dione] |
| > 25000 nM | CCn1c(=O)c(C(=O)NOCCO)c(Nc2ccc(I)cc2F)n(C)c1=O [Example 48, 3-Ethyl-6-(2-fluoro-4-iodophenylamino)-N-(2-hydroxyethoxy)-1-methyl-2,4-dioxo-1,2,3,4-tetrahydropyrimidine-5-carboxamide] |
| ≤ 500 nM | Cn1c(Nc2ccc(I)cc2F)c(C(=O)NO)c(=O)n(C)c1=O [Example 6, 6-(2-Fluoro-4-iodophenylamino)-N-hydroxy-1,3-dimethyl-2,4-dioxo-1,2,3,4-tetrahydropyrimidine-5-carboxamide] |
| ≤ 500 nM | Cc1cc(I)ccc1Nc1c(C(=O)NOC[C@H](O)CO)c(=O)n(C)c(=O)n1C [Example 38, (R)-N-(2,3-Dihydroxypropoxy)-6-(4-iodo-2-methylphenylamino)-1,3-dimethyl-2,4-dioxo-1,2,3,4-tetrahydropyrimidine-5-carboxamide] |
| > 25000 nM | Cn1c(Nc2ccc(I)cc2F)c(C(=O)C(=O)O)c(=O)n(C)c1=O [Example 31, 2-(6-(2-Fluoro-4-iodophenylamino)-1,3-dimethyl-2,4-dioxo-1,2,3,4-tetrahydropyrimidin-5-yl)-2-oxoacetic acid] |
| 501 to 2500 nM | CN(C)NC(=O)c1c(Nc2ccc(I)cc2F)n(C)c(=O)n(C)c1=O [Example 45, 6-(2-Fluoro-4-iodophenylamino)-N′,N′,1,3-tetramethyl-2,4-dioxo-1,2,3,4-tetrahydropyrimidine-5-carbohydrazide] |
| ≤ 500 nM | Cc1cc(I)ccc1Nc1c(C(=O)NOCCO)c(=O)n(C)c(=O)n1C [Example 35, N-(2-Hydroxyethoxy)-6-(4-iodo-2-methylphenylamino)-1,3-dimethyl-2,4-dioxo-1,2,3,4-tetrahydropyrimidine-5-carboxamide] |
| 2500 to 25000 nM | COCCOCC(=O)c1c(Nc2ccc(I)cc2F)n(C)c(=O)n(C)c1=O [Example 13, 6-(2-Fluoro-4-iodophenylamino)-5-(2-(2-methoxyethoxy)acetyl)-1,3-dimethylpyrimidine-2,4(1H,3H)-dione] |

Continued, molecule first:

| SMILES | IC50 |
| --- | --- |
| CCOC(=O)c1c(Nc2ccc(I)cc2F)n(C)c(=O)n(C)c1=O [Example 20, Ethyl 6-(2-fluoro-4-iodophenylamino)-1,3-dimethyl-2,4-dioxo-1,2,3,4-tetrahydropyrimidine-5-carboxylate] | > 25000 nM |
| CCc1cc(Nc2c(C(=O)NOCCO)c(=O)n(C)c(=O)n2C)ccc1I [Example 41, 6-(3-Ethyl-4-iodophenylamino)-N-(2-hydroxyethoxy)-1,3-dimethyl-2,4-dioxo-1,2,3,4-tetrahydropyrimidine-5-carboxamide] | > 25000 nM |
| Cn1c(Nc2ccc(I)cc2F)c(C(=O)N2CC(O)CO2)c(=O)n(C)c1=O (stereo not drawn) [Example 32, 6-(2-Fluoro-4-iodophenylamino)-5-(4-hydroxyisoxazolidine-2-carbonyl)-1,3-dimethylpyrimidine-2,4(1H,3H)-dione] | 2500 to 25000 nM |
| Cn1c(Nc2ccc(I)cc2F)c(C(=O)N2CCNCC2)c(=O)n(C)c1=O [Example 43, 6-(2-Fluoro-4-iodophenylamino)-1,3-dimethyl-5-(piperazine-1-carbonyl)pyrimidine-2,4(1H,3H)-dione] | > 25000 nM |
| Cn1c(Nc2ccc(I)cc2F)c(C(=O)N2CCN(CCO)CC2)c(=O)n(C)c1=O [Example 44, 6-(2-Fluoro-4-iodophenylamino)-5-(4-(2-hydroxyethyl)piperazine-1-carbonyl)-1,3-dimethylpyrimidine-2,4(1H,3H)-dione] | > 25000 nM |
| Cn1c(Nc2ccc(Br)cc2F)c(C(N)=O)c(=O)n(C)c1=O [Example 19, 6-(4-Bromo-2-fluorophenylamino)-1,3-dimethyl-2,4-dioxo-1,2,3,4-tetrahydropyrimidine-5-carboxamide] | 2500 to 25000 nM |
| Cn1c(Nc2ccc(Br)cc2Cl)c(C(N)=O)c(=O)n(C)c1=O [Example 18, 6-(4-Bromo-2-chlorophenylamino)-1,3-dimethyl-2,4-dioxo-1,2,3,4-tetrahydropyrimidine-5-carboxamide] | 2500 to 25000 nM |
| Cn1c(Nc2ccc(I)cc2F)c(C(=O)NOC[C@H](O)CCO)c(=O)n(C)c1=O [Example 56, 6-(2-Fluoro-4-iodo-phenylamino)-1,3-dimethyl-2,4-dioxo-1,2,3,4-tetrahydropyrimidine-5-carboxylic acid ((R)-2,4-dihydroxy-butoxy)-amide] | 501 to 2500 nM |
| CCOC(=O)c1c(Nc2ccc(Br)cc2Cl)n(C)c(=O)n(C)c1=O [Example 22, Ethyl 6-(4-bromo-2-chlorophenylamino)-1,3-dimethyl-2,4-dioxo-1,2,3,4-tetrahydropyrimidine-5-carboxylate] | > 25000 nM |
| Cn1c(Nc2ccc(I)cc2F)c(C(=O)NOC[C@@H](O)CO)c(=O)n(C)c1=O [Example 37, (S)-N-(2,3-Dihydroxypropoxy)-6-(2-fluoro-4-iodophenylamino)-1,3-dimethyl-2,4-dioxo-1,2,3,4-tetrahydropyrimidine-5-carboxamide] | ≤ 500 nM |
| Cn1c(Nc2ccc(I)cc2F)c(C(=O)N2CC(O)C2)c(=O)n(C)c1=O [Example 58, 6-(2-Fluoro-4-iodo-phenylamino)-5-(3-hydroxy-azetidine-1-carbonyl)-1,3-dimethyl-1H-pyrimidine-2,4-dione] | 2500 to 25000 nM |
| Cn1c(Nc2cc(F)c(I)cc2F)c(C(=O)NOC[C@H](O)CO)c(=O)n(C)c1=O [Example 40, (R)-6-(2,5-Difluoro-4-iodophenylamino)-N-(2,3-dihydroxypropoxy)-1,3-dimethyl-2,4-dioxo-1,2,3,4-tetrahydropyrimidine-5-carboxamide] | > 25000 nM |
